Measurements taken from ChEMBL document CHEMBL4800722, “Data for DCP probe BI 605906” (2021).

Legend:
[1] = molecular target: Ribosomal protein S6 kinase beta-1 (Homo sapiens) (UniProt P23443)
[2] = molecular target: Sodium-dependent dopamine transporter (Homo sapiens, UniProt Q01959); conditions: Compound concentration 10.0 uM
[3] = molecular target: Calcium/calmodulin-dependent protein kinase type II subunit delta (Homo sapiens) (UniProt Q13557); conditions: Compound concentration 1.0 uM
[4] = molecular target: Serine/threonine-protein kinase 38-like (Homo sapiens) (UniProt Q9Y2H1); test: STK38L (NDR2) Invitrogen Lab (UK) kinase screen (BI); conditions: Compound concentration 1.0 uM
[5] = molecular target: Mitogen-activated protein kinase 12 (Homo sapiens) (UniProt P53778); conditions: Compound concentration 1.0 uM
Homo sapiens = organism: Homo sapiens; test: PIK3CA/PIK3R3 Invitrogen Lab (UK) kinase screen (BI); conditions: Compound concentration 1.0 uM
[6] = molecular target: Serine/threonine-protein kinase MRCK beta (Homo sapiens) (UniProt Q9Y5S2); test: CDC42 BPB Invitrogen Lab (UK) kinase screen (BI); conditions: Compound concentration 1.0 uM
[7] = molecular target: STE20-like serine/threonine-protein kinase (Homo sapiens) (UniProt Q9H2G2); conditions: Compound concentration 1.0 uM
[8] = molecular target: Mitogen-activated protein kinase 15 (Homo sapiens) (UniProt Q8TD08); test: ERK8 DUNDEE kinase screen (BI); conditions: Compound concentration 10.0 uM
[9] = molecular target: MAP kinase-interacting serine/threonine-protein kinase 2 (Homo sapiens) (UniProt Q9HBH9); test: MNK2 ALPHA DUNDEE kinase screen (BI); conditions: Compound concentration 10.0 uM
[10] = molecular target: Histamine H4 receptor (Homo sapiens) (UniProt Q9H3N8); conditions: Compound concentration 10.0 uM
[11] = molecular target: Mitogen-activated protein kinase kinase kinase 10 (Homo sapiens) (UniProt Q02779); conditions: Compound concentration 1.0 uM
[12] = molecular target: Casein kinase I isoform alpha-like (Homo sapiens) (UniProt Q8N752); test: CSNK1A1L Invitrogen Lab (UK) kinase screen (BI); conditions: Compound concentration 1.0 uM
[13] = molecular target: T1, Serine/threonine-protein kinase Chk1 (Homo sapiens) (UniProt O14757); test: CHK1 DUNDEE kinase screen (BI); conditions: Compound concentration 10.0 uM
T1 sequence (whole entry): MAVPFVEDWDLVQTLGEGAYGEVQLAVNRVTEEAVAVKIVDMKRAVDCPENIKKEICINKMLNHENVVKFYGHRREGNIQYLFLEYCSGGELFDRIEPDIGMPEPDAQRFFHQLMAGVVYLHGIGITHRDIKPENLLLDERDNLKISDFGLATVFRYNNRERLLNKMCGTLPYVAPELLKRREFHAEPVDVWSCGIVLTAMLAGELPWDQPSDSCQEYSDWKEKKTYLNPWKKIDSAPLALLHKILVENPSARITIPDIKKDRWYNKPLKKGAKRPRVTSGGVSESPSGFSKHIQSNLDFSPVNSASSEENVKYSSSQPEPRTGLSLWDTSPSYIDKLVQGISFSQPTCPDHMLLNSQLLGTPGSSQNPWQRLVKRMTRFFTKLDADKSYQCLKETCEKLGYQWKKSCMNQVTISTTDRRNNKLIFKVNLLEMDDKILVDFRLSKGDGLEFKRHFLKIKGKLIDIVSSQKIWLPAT

[14] = molecular target: Phosphodiesterase 4 (Homo sapiens) (UniProt P27815+Q08499+Q07343+Q08493); test: PDE-IV/HU Eurofins SafetyScreen44 (BI); format: protein assay; conditions: Compound concentration 10.0 uM
[15] = molecular target: MAP kinase-activated protein kinase 3 (Homo sapiens) (UniProt Q16644); conditions: Compound concentration 1.0 uM
[16] = molecular target: Protein kinase C iota type (Homo sapiens) (UniProt P41743); conditions: Compound concentration 1.0 uM
[17] = molecular target: Histamine H3 receptor (Homo sapiens) (UniProt Q9Y5N1); conditions: Compound concentration 10.0 uM
[18] = molecular target: Casein kinase I isoform gamma-2 (Homo sapiens) (UniProt P78368)
[19] = molecular target: Phosphatidylinositol 4-phosphate 5-kinase type-1 gamma (Homo sapiens) (UniProt O60331); conditions: Compound concentration 1.0 uM
Rattus norvegicus = organism: Rattus norvegicus; conditions: Compound concentration 10.0 uM
[20] = molecular target: Insulin-like growth factor 1 receptor (Homo sapiens) (UniProt P08069)
[21] = molecular target: RAC-alpha serine/threonine-protein kinase (Homo sapiens) (UniProt P31749)
[22] = molecular target: Serine/threonine-protein kinase TAO1 (Homo sapiens) (UniProt Q7L7X3); test: TAOK1 Invitrogen Lab (UK) kinase screen (BI); conditions: Compound concentration 1.0 uM
[23] = molecular target: Cyclin-C/Cyclin-dependent kinase 19 (Homo sapiens) (UniProt Q9BWU1+P24863); test: CDK11/CYCLIN C Invitrogen Lab (UK) kinase screen (BI); format: protein-complex assay; conditions: Compound concentration 1.0 uM
[24] = molecular target: Aurora kinase A (Homo sapiens) (UniProt O14965)
[25] = molecular target: Histamine H2 receptor (Homo sapiens) (UniProt P25021); conditions: Compound concentration 10.0 uM
[26] = molecular target: cAMP-dependent protein kinase (PKA) (Homo sapiens) (UniProt P22694+P17612+P22612); test: PKA(REC) DUNDEE kinase screen (BI); format: protein assay; conditions: Compound concentration 10.0 uM
[27] = molecular target: Phosphatidylinositol 3-kinase catalytic subunit type 3 (Homo sapiens) (UniProt Q8NEB9); conditions: Compound concentration 1.0 uM
[28] = molecular target: Ephrin type-B receptor 1 (Homo sapiens) (UniProt P54762); test: EPHB1 Invitrogen Lab (UK) kinase screen (BI); conditions: Compound concentration 1.0 uM
[29] = molecular target: Dual specificity protein kinase CLK2 (Homo sapiens) (UniProt P49760); conditions: Compound concentration 1.0 uM
[30] = molecular target: Membrane-associated tyrosine- and threonine-specific cdc2-inhibitory kinase (Homo sapiens) (UniProt Q99640); conditions: Compound concentration 1.0 uM
[31] = molecular target: Ephrin type-A receptor 5 (Homo sapiens) (UniProt P54756); conditions: Compound concentration 1.0 uM
[32] = molecular target: Serine/threonine-protein kinase 3 (Homo sapiens) (UniProt Q13188); conditions: Compound concentration 10.0 uM
[33] = molecular target: Amine oxidase [flavin-containing] A (MAOA) (Homo sapiens, UniProt P21397); test: MAOA Eurofins SafetyScreen44 (BI); design: mode of action inhibitor; conditions: compound concentration 10 uM, read-out: % Ctrl
[34] = molecular target: Ribosomal protein S6 kinase alpha-1 (Homo sapiens) (UniProt Q15418); test: MAPKAPK1A DUNDEE kinase screen (BI); conditions: Rattus norvegicus; Compound concentration 10.0 uM
Sequence of Ribosomal protein S6 kinase alpha-1 (Homo sapiens) (Q15418 whole entry): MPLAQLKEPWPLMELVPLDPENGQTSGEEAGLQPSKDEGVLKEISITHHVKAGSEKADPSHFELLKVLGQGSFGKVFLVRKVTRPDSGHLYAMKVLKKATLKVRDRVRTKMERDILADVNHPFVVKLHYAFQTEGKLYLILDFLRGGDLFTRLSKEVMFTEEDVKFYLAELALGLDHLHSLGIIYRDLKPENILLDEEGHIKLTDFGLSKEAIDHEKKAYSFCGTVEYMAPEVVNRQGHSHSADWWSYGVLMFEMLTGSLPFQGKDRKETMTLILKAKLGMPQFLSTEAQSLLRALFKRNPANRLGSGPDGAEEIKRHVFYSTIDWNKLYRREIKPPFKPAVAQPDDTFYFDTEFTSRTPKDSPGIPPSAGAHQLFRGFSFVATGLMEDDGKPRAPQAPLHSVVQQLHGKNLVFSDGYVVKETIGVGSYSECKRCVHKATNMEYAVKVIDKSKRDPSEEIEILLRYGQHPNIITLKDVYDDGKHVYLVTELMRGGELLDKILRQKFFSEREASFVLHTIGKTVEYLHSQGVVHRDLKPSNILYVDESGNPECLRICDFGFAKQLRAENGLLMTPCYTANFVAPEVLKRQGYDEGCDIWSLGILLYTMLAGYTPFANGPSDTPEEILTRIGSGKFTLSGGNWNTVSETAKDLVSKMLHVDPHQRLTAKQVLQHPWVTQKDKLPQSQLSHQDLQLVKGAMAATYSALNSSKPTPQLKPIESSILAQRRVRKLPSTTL

Sequence of Insulin-like growth factor 1 receptor (Homo sapiens) (P08069 31-736 limits assumed): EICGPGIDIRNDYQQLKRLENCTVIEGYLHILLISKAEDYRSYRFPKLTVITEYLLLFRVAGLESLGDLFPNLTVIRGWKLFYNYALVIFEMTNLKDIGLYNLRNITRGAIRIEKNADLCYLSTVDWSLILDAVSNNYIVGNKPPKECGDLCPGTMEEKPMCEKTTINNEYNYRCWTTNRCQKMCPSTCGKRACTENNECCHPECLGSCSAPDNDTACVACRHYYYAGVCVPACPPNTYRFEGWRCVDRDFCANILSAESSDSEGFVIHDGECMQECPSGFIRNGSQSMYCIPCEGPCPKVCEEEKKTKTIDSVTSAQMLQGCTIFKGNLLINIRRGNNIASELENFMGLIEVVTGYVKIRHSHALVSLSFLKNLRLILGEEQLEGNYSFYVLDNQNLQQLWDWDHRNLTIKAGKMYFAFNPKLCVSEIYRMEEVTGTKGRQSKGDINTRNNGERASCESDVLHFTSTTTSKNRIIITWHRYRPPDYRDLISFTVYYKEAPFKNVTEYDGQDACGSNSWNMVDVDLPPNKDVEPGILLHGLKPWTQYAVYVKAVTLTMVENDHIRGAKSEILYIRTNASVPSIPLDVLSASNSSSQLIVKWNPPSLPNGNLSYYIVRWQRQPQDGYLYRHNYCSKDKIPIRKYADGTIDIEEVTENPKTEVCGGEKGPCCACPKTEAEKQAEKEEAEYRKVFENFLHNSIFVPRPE
Sequence of Insulin-like growth factor 1 receptor (Homo sapiens) (P08069 741-1367 limits assumed): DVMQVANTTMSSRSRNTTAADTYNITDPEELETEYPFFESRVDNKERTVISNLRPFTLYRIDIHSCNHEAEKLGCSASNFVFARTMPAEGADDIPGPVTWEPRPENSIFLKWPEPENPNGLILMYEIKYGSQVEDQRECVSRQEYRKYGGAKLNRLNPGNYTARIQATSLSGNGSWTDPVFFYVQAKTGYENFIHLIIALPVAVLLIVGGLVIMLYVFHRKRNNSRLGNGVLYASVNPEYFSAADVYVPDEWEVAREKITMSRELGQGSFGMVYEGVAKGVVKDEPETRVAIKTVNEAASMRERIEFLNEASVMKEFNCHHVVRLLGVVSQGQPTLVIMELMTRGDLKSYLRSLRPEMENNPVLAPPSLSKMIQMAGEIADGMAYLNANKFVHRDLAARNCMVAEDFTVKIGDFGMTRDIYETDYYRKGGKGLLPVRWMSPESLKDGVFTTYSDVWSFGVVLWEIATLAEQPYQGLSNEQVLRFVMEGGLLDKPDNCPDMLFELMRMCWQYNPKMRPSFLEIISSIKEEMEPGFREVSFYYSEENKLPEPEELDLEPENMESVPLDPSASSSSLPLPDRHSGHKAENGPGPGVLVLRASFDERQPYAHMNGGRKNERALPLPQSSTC
Sequence of Ribosomal protein S6 kinase beta-1 (Homo sapiens) (P23443 whole entry, looked up): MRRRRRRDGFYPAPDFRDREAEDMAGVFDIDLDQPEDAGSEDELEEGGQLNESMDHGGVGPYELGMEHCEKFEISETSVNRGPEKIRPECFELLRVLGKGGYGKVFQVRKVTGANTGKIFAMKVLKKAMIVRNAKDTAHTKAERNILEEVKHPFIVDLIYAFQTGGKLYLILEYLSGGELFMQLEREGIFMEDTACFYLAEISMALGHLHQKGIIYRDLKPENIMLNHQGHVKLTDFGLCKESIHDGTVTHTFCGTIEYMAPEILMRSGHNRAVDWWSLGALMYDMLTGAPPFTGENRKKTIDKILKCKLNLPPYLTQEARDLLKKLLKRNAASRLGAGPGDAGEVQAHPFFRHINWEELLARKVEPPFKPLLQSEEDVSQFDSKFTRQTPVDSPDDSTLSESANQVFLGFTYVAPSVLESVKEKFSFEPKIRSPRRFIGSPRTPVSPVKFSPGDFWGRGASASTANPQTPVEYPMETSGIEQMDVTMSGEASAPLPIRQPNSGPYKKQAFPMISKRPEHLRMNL
Sequence of Casein kinase I isoform gamma-2 (Homo sapiens) (P78368 whole entry, looked up, canonical isoform): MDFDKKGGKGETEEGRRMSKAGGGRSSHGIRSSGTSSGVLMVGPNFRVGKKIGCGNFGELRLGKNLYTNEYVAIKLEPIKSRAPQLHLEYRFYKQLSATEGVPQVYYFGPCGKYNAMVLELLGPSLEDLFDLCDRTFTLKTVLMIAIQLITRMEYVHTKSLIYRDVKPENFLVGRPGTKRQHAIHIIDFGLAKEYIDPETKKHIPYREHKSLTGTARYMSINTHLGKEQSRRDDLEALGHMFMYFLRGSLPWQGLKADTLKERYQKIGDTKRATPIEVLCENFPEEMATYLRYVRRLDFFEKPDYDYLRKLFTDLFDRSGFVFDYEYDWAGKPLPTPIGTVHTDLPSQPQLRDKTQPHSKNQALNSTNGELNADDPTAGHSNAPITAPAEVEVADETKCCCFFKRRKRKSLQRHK
Sequence of Aurora kinase A (Homo sapiens) (O14965 whole entry): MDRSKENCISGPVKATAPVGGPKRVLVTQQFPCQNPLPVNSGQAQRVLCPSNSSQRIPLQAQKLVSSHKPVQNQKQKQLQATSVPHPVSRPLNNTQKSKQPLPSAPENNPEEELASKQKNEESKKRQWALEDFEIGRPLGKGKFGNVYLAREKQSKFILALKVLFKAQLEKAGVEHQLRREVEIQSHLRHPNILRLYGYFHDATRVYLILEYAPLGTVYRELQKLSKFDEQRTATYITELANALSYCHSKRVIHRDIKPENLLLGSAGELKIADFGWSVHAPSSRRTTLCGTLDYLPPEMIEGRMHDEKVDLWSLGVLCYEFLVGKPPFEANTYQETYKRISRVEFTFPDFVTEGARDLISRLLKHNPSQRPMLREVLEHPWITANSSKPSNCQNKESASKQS
Sequence of RAC-alpha serine/threonine-protein kinase (Homo sapiens) (P31749 whole entry): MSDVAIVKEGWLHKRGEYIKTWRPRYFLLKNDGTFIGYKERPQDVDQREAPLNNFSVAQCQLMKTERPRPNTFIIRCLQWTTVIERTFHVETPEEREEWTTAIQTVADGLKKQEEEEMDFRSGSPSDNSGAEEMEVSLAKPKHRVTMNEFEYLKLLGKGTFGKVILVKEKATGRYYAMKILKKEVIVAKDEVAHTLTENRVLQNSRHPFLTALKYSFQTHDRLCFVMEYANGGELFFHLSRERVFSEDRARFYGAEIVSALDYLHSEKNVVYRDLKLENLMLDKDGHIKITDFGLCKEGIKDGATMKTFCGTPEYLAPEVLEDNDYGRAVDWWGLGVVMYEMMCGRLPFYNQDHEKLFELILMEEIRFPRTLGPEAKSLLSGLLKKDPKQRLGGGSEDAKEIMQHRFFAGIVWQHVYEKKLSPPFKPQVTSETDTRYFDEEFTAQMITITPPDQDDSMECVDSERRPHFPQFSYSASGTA
Sequence of MAP kinase-activated protein kinase 3 (Homo sapiens) (Q16644 whole entry, looked up): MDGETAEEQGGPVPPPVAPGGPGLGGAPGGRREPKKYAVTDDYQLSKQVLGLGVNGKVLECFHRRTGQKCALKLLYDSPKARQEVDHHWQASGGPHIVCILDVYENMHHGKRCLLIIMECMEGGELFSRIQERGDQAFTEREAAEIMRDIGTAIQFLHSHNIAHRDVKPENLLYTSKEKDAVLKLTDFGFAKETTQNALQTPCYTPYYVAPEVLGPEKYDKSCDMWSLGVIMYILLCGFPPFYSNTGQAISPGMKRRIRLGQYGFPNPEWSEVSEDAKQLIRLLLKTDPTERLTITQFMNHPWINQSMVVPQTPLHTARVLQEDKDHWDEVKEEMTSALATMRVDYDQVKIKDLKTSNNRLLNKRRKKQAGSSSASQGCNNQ
Sequence of Dual specificity protein kinase CLK2 (Homo sapiens) (P49760 whole entry, looked up): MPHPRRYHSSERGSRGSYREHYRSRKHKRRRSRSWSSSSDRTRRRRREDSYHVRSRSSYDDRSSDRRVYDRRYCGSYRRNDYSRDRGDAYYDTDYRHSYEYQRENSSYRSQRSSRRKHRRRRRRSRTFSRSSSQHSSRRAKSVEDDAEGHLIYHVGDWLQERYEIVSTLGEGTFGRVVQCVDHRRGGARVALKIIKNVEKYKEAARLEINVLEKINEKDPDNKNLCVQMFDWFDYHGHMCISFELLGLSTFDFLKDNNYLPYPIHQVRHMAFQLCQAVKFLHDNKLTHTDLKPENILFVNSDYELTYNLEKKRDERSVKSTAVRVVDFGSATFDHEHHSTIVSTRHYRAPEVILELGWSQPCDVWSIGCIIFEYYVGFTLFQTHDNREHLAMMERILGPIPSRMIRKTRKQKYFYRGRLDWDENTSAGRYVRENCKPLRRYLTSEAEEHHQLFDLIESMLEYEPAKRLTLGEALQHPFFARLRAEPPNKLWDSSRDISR

CCC(F)(F)c1cc(N2CCC(S(C)(=O)=O)CC2)nc2sc(C(N)=O)c(N)c12 [BI-605906]
residual activity ([1]; Compound concentration 1.0 uM): 94% | residual activity ([1]; Compound concentration 10.0 uM): 66% | residual activity [2]: 105% | residual activity [3]: 96% | residual activity [4]: 125% | residual activity [5]: 99% | residual activity (Homo sapiens): 103% | residual activity [6]: 103% | residual activity [7]: 99% | residual activity [8]: 63.2% | residual activity [9]: 67.2% | inhibition [10]: -1.66% | residual activity [11]: 98% | residual activity [12]: 84% | residual activity [13]: 90.2% | residual activity [14]: 68% | residual activity [15]: 93% | residual activity [16]: 105% | inhibition [17]: 0.2% | residual activity ([18]; Compound concentration 1.0 uM): 96% | residual activity ([18]; Compound concentration 10.0 uM): 94% | residual activity [19]: 96% | residual activity (Rattus norvegicus): 97% | residual activity ([20]; Compound concentration 1.0 uM): 95% | residual activity ([20]; Compound concentration 10.0 uM): 99% | residual activity ([21]; Compound concentration 1.0 uM): 99% | residual activity ([21]; Compound concentration 10.0 uM): 96% | residual activity [22]: 88% | residual activity [23]: 83% | residual activity ([24]; Compound concentration 1.0 uM): 93% | residual activity ([24]; Compound concentration 10.0 uM): 38% | residual activity [25]: 94% | residual activity [26]: 61.7% | residual activity [27]: 91% | residual activity [28]: 85% | residual activity [29]: 91% | residual activity [30]: 90% | residual activity [31]: 94% | residual activity [32]: 91% | activity at 10 µM [33]: 68% (not active) | residual activity [34]: 77.5%
